Tests used:
[1] = target: T1, RML-1 (Caenorhabditis elegans, UniProt Q9XUS4); experiment: EnzChek pyrophosphate assay, […] nm; type: biochemical; settings: 1 mM Glc-1-P; 5 mM MgCl2, pH 7.5, 25°C
T1 sequence (Q9XUS4 1-511): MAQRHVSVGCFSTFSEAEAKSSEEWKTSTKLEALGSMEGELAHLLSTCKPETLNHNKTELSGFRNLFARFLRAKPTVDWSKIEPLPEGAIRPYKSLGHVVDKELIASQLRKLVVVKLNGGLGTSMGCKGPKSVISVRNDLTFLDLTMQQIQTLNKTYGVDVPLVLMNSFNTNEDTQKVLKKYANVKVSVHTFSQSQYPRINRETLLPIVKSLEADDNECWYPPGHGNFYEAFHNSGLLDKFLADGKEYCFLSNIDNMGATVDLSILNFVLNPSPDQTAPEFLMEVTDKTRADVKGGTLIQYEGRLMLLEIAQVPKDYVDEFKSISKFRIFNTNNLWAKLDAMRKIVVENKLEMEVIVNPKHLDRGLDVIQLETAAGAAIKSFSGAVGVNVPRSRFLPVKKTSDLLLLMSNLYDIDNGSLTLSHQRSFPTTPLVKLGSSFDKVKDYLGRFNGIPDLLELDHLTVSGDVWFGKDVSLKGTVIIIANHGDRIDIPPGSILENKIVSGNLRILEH

[2] = target: T2, RML-4–RML-5 (Caenorhabditis elegans, UniProt Q17556); experiment: LC–MS; type: biochemical; settings: formed from dTDP-4-keto-6-deoxyglucose with RML-3 and NAD(P)H, 25°C
T2 sequence (Q17556 1-631): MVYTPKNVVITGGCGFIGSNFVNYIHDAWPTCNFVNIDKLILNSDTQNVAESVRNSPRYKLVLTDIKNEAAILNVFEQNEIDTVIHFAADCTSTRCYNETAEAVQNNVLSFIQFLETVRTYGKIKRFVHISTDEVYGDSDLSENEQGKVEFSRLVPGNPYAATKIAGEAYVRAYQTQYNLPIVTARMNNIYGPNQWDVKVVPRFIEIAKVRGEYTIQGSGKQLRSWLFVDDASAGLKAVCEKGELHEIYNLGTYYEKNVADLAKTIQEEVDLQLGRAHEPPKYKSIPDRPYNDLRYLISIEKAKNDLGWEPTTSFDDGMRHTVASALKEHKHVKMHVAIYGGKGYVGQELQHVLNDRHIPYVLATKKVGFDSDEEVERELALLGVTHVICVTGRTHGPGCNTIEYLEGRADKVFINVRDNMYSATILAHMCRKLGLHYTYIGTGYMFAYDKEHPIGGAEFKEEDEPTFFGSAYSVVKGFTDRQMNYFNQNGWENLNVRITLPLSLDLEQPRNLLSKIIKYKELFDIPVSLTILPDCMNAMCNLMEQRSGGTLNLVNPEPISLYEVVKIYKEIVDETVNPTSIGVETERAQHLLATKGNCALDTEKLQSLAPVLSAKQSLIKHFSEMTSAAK
T2 sequence (Q95XM5 1-383 partner): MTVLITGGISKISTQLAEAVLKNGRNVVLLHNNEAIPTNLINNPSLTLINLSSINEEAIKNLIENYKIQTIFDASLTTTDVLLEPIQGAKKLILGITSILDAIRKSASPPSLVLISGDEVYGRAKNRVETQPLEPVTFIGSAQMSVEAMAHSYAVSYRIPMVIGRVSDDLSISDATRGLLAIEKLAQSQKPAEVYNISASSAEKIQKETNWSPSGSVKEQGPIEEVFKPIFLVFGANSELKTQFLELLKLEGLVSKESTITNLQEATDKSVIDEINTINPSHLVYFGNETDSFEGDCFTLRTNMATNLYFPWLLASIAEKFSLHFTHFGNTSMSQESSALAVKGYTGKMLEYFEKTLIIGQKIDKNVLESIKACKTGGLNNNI

| Compound | Km [1] [µM] | LC-MS; 1H NMR and COSY of HPLC-purified product [2] |
| --- | --- | --- |
| O=c1ccn([C@@H]2O[C@H](COP(=O)(O)OP(=O)(O)OP(=O)(O)O)[C@@H](O)[C@H]2O)c(=O)[nH]1 [UTP] | 9.47 ± 1.7 |  |
| Cc1cn([C@H]2C[C@H](O)[C@@H](COP(=O)(O)OP(=O)(O)O[C@H]3O[C@@H](C)[C@H](O)[C@@H](O)[C@H]3O)O2)c(=O)[nH]c1=O [dTDP-rhamnose] |  | the final product is dTDP-rhamnose when dTDP-4-keto-6-deoxyglucose is incubated with RML-3 and RML-4–RML-5 |
| Cc1cn([C@H]2C[C@H](O)[C@@H](COP(=O)(O)OP(=O)(O)OP(=O)(O)O)O2)c(=O)[nH]c1=O [dTTP] | 24.2 ± 2.86 |  |

— paper PMC4888466 (Biochemical Journal, 2016)
